“Also recorded” adds a separate entry of the source. Where two headings read alike, the source gives them in different places.
Target: T1, AnKir1 (Anopheles gambiae, UniProt A0A075M2J8)
T1 sequence (A0A075M2J8 1-555): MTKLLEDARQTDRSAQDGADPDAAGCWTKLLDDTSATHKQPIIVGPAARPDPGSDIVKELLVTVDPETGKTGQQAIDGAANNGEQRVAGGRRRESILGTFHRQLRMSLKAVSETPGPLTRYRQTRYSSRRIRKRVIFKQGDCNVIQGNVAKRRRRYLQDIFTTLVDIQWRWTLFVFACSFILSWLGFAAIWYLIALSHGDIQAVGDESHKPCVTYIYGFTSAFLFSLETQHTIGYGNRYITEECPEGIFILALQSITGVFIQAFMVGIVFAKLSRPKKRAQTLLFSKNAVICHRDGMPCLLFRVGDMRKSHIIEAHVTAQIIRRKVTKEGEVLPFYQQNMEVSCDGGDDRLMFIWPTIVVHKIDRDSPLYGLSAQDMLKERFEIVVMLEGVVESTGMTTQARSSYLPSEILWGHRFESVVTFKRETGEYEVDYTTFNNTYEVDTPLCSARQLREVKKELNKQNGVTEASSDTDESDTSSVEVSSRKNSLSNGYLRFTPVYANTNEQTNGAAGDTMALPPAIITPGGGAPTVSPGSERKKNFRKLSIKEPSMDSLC
Assay: Tl+ flux assay in T-REx-HEK293 cells expressing AnKir1
Assay type: cell-based
Procedure: Tl^+ flux assays were performed essentially as described previously. Briefly, stably transfected T-Rex-HEK-293 cells expressing AnKir1 channels were cultured overnight in 384-well plates (20,000 cells/20 μL/well black-walled, clear-bottomed BD PureCoat amine-coated plates (BD, Bedford, MA) with a plating media containing DMEM, 10% dialyzed FBS and 1 μg/mL tetracycline. Approximately twenty-four hours after cell plating, the cell culture medium was replaced with a dye-loading solution containing assay buffer (Hanks Balanced Salt Solution with 20 mM HEPES, pH 7.3), 0.01% (w/v) Pluronic F-127 (Life Technologies, Carlsbad, CA), and 1.2 μM of the thallium-sensitive dye Thallos-AM (TEFlabs, Austin, TX). Following 1 hr incubation at room temperature, the dye-loading solution was washed from the plates and replaced with 20 μL/well of assay buffer.
Tl+ flux assay development
Tl+ flux assays were performed essentiall y as described previousl y (1). Briefl y, stabl y transfect ed T-Rex -HEK- 293- AnKir1 cells were cultured overnight in 384-well plates in media containing DMEM, 10% dial yz ed FBS and 1μg/ m L tetrac ycline to induce channel expression
(Fig. S1A). The next day, the cell culture medium was replaced with a dye-loading solution containing assay buffer (Hanks Balanced Salt Solution with 20 mM HEPES, pH 7.3), 0.01% (w/v) Pluronic F-127 (Li fe Technologies, Carlsbad, CA), and 1.2 μM of the thallium-sensitive dye Thallos-AM (TEFl abs, Austin, TX). Following 1 hr incubation at room temperature, the d ye-loading solution was washed from the plates and replaced with 20 μ L/well of assa y buffer. The plates were transferred t o a Ham amatsu Functional Drug Screening System 6000 (FDSS6000; Hamamatsu, Tokyo, J apan) where 20 μ L/well of test compounds in assay buffer (as prepared below) were added and allowed to incubate with the cells for 20 min. After the incubation period, a baseline recordi ng was collected at 1 Hz for 10 s (excitation 470 ± 20 nm, emission 540 ± 30 nm) followed by a t hallium stimulus buffer addition (10 μL/well) and data collection for an additional 4 min. The Tl + stimulus buffer contains in (mM) 125 NaHCO3, 1.8 CaSO4, 1 MgSO4, 5 glucose, 12 Tl2SO4, 10 HEPES, pH 7.4. For Tl + flux assays on Kir2.x, Kir4.1 and Kir6.2/SUR1 ex pressing cells, the Tl+ stimulus buffer contained 1.8 mM Tl 2SO4. To ensure the small-molecule vehicle DMSO had no direct effect on An Ki r1-dependent Tl+ flux, the assa y’s tolerance to different doses of DMSO was evaluated (Fig. S1B). The robustness and reproducibility of the assay was determined by comparing Tl+ flux through tetracycline-induced and tetracycline-uninduced cells (Fig. S1C). The Z’ value was calculated as described previously (1 ), using the […]
Z’ = 1- (3SD p + 3SD n)/ |meanp + meann | where SD is standard deviation, p and n are control and uninduced flux values respectivel y.
To compare the effect of DMSO on An Kir1-mediated Tl+ flux, a one-way ANOVA was performed with a Tuke y’s multiple comparison test. Prism software (GraphPad Software) was used to generate CRC from Tl+ fl ux ..Half-inhibition concentration (IC50) values were calculated from fits using a four parameter logistic equation.
High-throughput screeni ng
The test compounds were transferred to daughter pol yprop ylene 384-well plates (G reiner Bio-One, Monroe, NC) using an Echo555 liquid handler (Labcyte, Sunnyvale, CA), and then diluted into assay buffer to generat e a 2X stock in 0.6% DMSO (0.3% final). For Tl+ flux assays on Kir6.2/SUR1 expressing cells, test compounds were diluted in assay buffer containing diazoxide (250 μM final) to induce channel activation. Concentration- response curves (CRCs) were gener ated b y screening compounds at 3-fold dilution series (1 nM - 30 μM).
Tl+ flux data were anal yzed as previousl y d escri bed (2, 3) using a combination of Excel (Microsoft Corp, Redmond, WA) with XLfit add-in (IDBS, Guildford, Surre y, UK), Ori ginPro […]

[1] = Tl+ flux, Tables S2/S3 and supplemental text, read-out: AnKir1 IC50
[2] = Tl+ flux assay, read-out: AnKir1 IC50 (Tl+ flux)

Row | Structure (SMILES) | IC50 [1] | other results
1 | O=C1CCCc2c1ccn2CC(=O)N1CCCc2ccccc21 [Compound 4] | 12.1 µM | –
2 | O=C(Cn1nc(C(F)(F)F)c2c1CCCC2)N1CCCC2CCCCC21 (stereo not shown) [Compound 9] | 6.7 µM | –
3 | O=C(Cn1nc(C(F)(F)F)c2c1CCCC2)N1CCCC(c2ccccc2)C1 (stereo not shown) [Compound 12] | 5.6 µM | –
4 | CC1CC(C)CN(C(=O)Cn2nc(C(F)(F)F)c3c2CCCC3)C1 (stereo not shown) [Compound 13] | 4.5 µM | –
5 | O=C(Cn1nc(C(F)(F)F)c2c1CCCC2)N1CCCc2ccccc21 [VU041, 1-(3,4-dihydroquinolin-1(2H)-yl)-2-(3-(trifluoromethyl)-4,5,6,7-tetrahydro-1H-indazol-1-yl)ethan-1-one] | 2.3 µM | Hill-coefficient (Tl+ flux, AnKir1) (Tl+ flux CRC): 1.1; IC50 [2]: 2.5 µM
6 | O=C(Cn1ncc2c1CCOC2)N1CCCc2ccccc21 [VU730] | – | IC50 [2]: 2.4 µM
7 | O=C(Cn1nc(C(F)(F)F)c2c1CCCC2)NC1CCC1 [VU937] | – | AnKir1 IC50 (Tl+ flux, Tables S2/S3 and supplemental text, listed as 18): not tolerated; also recorded: inactive; inhibition at 30 µM (at 30 μM, read-out: inhibition of AnKir1-mediated Tl+ flux): < 50%

From publication PMC5111108, “An insecticide resistance-breaking mosquitocide targeting inward rectifier potassium channels in vectors of Zika virus and malaria” (Scientific Reports, 2016)
